Data from patent publication US20240398781A1, “SPIROCYCLIC CYCLIC MODULATORS OF CHOLESTEROL BIOSYNTHESIS AND THEIR USE FOR PROMOTING REMYELINATION” (GENENTECH, INC., priority 2021, published 2024).
Each block holds one molecule with its values, some of them ahead of it.

Legend:
EpiSC-derived OPCs = test: In vitro phenotypic screening of OPCs (MBP staining, high-content imaging); assay type: cell-based, mouse; settings: Mus musculus, 72 h, percentage of MBP+ oligodendrocytes, 3 days, 0.5 nM to 1000 nM; read-out: OPC EC50
Procedure, shortened: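 EpiSC-derived mouse OPCs seeded at 150,000/cm^2 on laminin in N2B27 without growth factors, treated 3 days at 37° C. with compound (8 points, 1000 nM to 0.5 nM). Fixed cells stained for MBP and DAPI and imaged; percentage of MBP+ oligodendrocytes fitted by Hill equation for EC50.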

[1] = molecular target: human emopamil binding protein and human 7-dehydrocholesterol reductase co-expressing cells (hEBP-DHCR7 membrane) (Homo sapiens (Human), UniProt Q15125); test: Radioligand filter binding assay on hEBP-DHCR7 membrane; settings: [3H]-(S)-6-(2-Methyl-3-(6-(trifluoromethyl)pyridin-3-yl)propyl)-2-thia-6-azaspiro[3.4]octane 2,2-dioxide radioligand, HEK293 membrane co-expressing hEBP and hDHCR7
Chain of human emopamil binding protein and human 7-dehydrocholesterol reductase co-expressing cells (hEBP-DHCR7 membrane) (Q15125 whole entry): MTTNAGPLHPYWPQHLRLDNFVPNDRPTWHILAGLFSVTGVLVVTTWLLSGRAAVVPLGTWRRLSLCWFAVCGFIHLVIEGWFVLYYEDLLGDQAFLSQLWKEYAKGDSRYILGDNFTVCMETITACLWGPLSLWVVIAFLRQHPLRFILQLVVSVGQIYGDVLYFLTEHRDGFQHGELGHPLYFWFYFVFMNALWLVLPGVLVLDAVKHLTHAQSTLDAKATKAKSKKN
Procedure, shortened: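 HEK293 cells transiently co-expressing human EBP and DHCR7 supplied whole-cell membranes (10 μg/well), incubated 3 h at 22 °C with [3H]-labelled spiro-octane dioxide ligand (added at 25 nM) and compound (0.06-5000 nM final, 8 doses, n=2). Bound ligand was collected on PEI-treated GF/B filters and counted by scintillation. IC50 was Hill-fitted from % inhibition and reported as Ki.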

SMILES: O=S1(=O)CC2(CCN([C@@H]3CC[C@@H](c4ccc(C(F)(F)F)cc4)C3)C2)C1 [Compound 1B, 6-((1R,3R)-3-(4-(trifluoromethyl)phenyl)cyclopentyl)-2-thia-6-azaspiro[3.4]octane 2,2-dioxide]
EC50 (EpiSC-derived OPCs): 0.0018 µM
Ki [1]: 0.0268 µM

SMILES: Cn1nc(C(F)(F)F)cc1[C@H]1CC[C@@H](N2CCC3(C2)CS(=O)(=O)C3)CC1 [Compound 2A, 6-((1s,4s)-4-(1-methyl-3-(trifluoromethyl)-1H-pyrazol-5-yl)cyclohexyl)-2-thia-6-azaspiro[3.4]octane 2,2-dioxide]
EC50 (EpiSC-derived OPCs): 0.24 µM
Ki [1]: 0.0445 µM

SMILES: Cn1nc(C(F)(F)F)cc1[C@H]1CC[C@H](N2CCC3(C2)CS(=O)(=O)C3)CC1 [Compound 2B, 6-((1r,4r)-4-(1-methyl-3-(trifluoromethyl)-1H-pyrazol-5-yl)cyclohexyl)-2-thia-6-azaspiro[3.4]octane 2,2-dioxide]
EC50 (EpiSC-derived OPCs): 0.048 µM
Ki [1]: 0.0693 µM

SMILES: O=S1(=O)CC2(CCN([C@H]3CC[C@H](c4ccc(C(F)(F)F)cc4)CC3)C2)C1 [Compound 3A, 6-((1r,4r)-4-(4-(trifluoromethyl)phenyl)cyclohexyl)-2-thia-6-azaspiro[3.4]octane 2,2-dioxide]
EC50 (EpiSC-derived OPCs): 0.0051 µM
Ki [1]: 0.0158 µM

SMILES: O=S1(=O)CC2(CCN([C@H]3CC[C@@H](c4ccc(C(F)(F)F)cc4)CC3)C2)C1 [Compound 3B, 6-((1s,4s)-4-(4-(trifluoromethyl)phenyl)cyclohexyl)-2-thia-6-azaspiro[3.4]octane 2,2-dioxide]
EC50 (EpiSC-derived OPCs): 0.03 µM
Ki [1]: 0.0275 µM

SMILES: O=S1(=O)CC2(CCN(C3CCN(c4ccc(C(F)(F)F)cc4)CC3)C2)C1 [Compound 4, 6-(1-(4-(trifluoromethyl)phenyl)piperidin-4-yl)-2-thia-6-azaspiro[3.4]octane 2,2-dioxide]
EC50 (EpiSC-derived OPCs): 0.023 µM
Ki [1]: 0.0518 µM

SMILES: O=S1(=O)CC2(CCN(C3CCN(c4ccc(C(F)(F)F)nc4)CC3)C2)C1 [Compound 5, 6-(1-(6-(trifluoromethyl)pyridin-3-yl)piperidin-4-yl)-2-thia-6-azaspiro[3.4]octane 2,2-dioxide]
EC50 (EpiSC-derived OPCs): 0.19 µM
Ki [1]: 0.148 µM

SMILES: O=S1(=O)CC2(CCN(C3CCN(c4ccc(C(F)(F)F)cn4)CC3)C2)C1 [Compound 6, 6-(1-(5-(trifluoromethyl)pyridin-2-yl)piperidin-4-yl)-2-thia-6-azaspiro[3.4]octane 2,2-dioxide]
EC50 (EpiSC-derived OPCs): 0.039 µM
Ki [1]: 0.023 µM

SMILES: Cc1cc(C(F)(F)F)cnc1N1CCC(N2CCC3(C2)CS(=O)(=O)C3)CC1 [Compound 7, 6-(1-(3-methyl-5-(trifluoromethyl)pyridin-2-yl)piperidin-4-yl)-2-thia-6-azaspiro[3.4]octane 2,2-dioxide]
EC50 (EpiSC-derived OPCs): 0.021 µM
Ki [1]: 0.0175 µM

SMILES: CCn1nc(C(F)(F)F)cc1[C@H]1CC[C@H](N2CCC3(C2)CS(=O)(=O)C3)CC1 [Compound 15, 6-((1r,4r)-4-(1-Ethyl-3-(trifluoromethyl)-1H-pyrazol-5-yl)cyclohexyl)-2-thia-6-azaspiro[3.4]octane 2,2-dioxide]
EC50 (EpiSC-derived OPCs): 0.044 µM
Ki [1]: 0.056 µM

SMILES: CCn1nc([C@H]2CC[C@H](N3CCC4(C3)CS(=O)(=O)C4)CC2)cc1C(F)(F)F [Compound 16, 6-((1r,4r)-4-(1-Ethyl-5-(trifluoromethyl)-1H-pyrazol-3-yl)cyclohexyl)-2-thia-6-azaspiro[3.4]octane 2,2-dioxide]
EC50 (EpiSC-derived OPCs): 0.041 µM
Ki [1]: 0.052 µM

SMILES: O=S1(=O)CC2(CCN([C@H]3CC[C@H](c4cc(C(F)(F)F)n(C5CCC5)n4)CC3)C2)C1 [Compound 24, 6-((1r,4r)-4-(1-cyclobutyl-5-(trifluoromethyl)-1H-pyrazol-3-yl)cyclohexyl)-2-thia-6-azaspiro[3.4]octane 2,2-dioxide]
EC50 (EpiSC-derived OPCs): 0.006 µM
Ki [1]: 0.011 µM

SMILES: Cc1cc(C(F)(F)F)ncc1N1CCC(N2CCC3(C2)CS(=O)(=O)C3)CC1 [Compound 28, 6-(1-(4-Methyl-6-(trifluoromethyl)pyridin-3-yl)piperidin-4-yl)-2-thia-6-azaspiro[3.4]octane 2,2-dioxide]
EC50 (EpiSC-derived OPCs): 0.064 µM
Ki [1]: 0.03 µM

SMILES: Cc1nc(C(F)(F)F)ccc1N1CCC(N2CCC3(C2)CS(=O)(=O)C3)CC1 [Compound 29, 6-(1-(2-methyl-6-(trifluoromethyl)pyridin-3-yl)piperidin-4-yl)-2-thia-6-azaspiro[3.4]octane 2,2-dioxide]
EC50 (EpiSC-derived OPCs): 0.039 µM
Ki [1]: 0.23 µM

SMILES: O=S1(=O)CC2(CCN(C3CCN(c4ncc(C(F)(F)F)cc4Cl)CC3)C2)C1 [Compound 30, 6-(1-(3-chloro-5-(trifluoromethyl)pyridin-2-yl)piperidin-4-yl)-2-thia-6-azaspiro[3.4]octane 2,2-dioxide]
EC50 (EpiSC-derived OPCs): 0.01 µM
Ki [1]: 0.013 µM

SMILES: Cc1cc(F)cnc1N1CCC(N2CCC3(C2)CS(=O)(=O)C3)CC1 [Compound 31, 6-(1-(5-fluoro-3-methylpyridin-2-yl)piperidin-4-yl)-2-thia-6-azaspiro[3.4]octane 2,2-dioxide]
EC50 (EpiSC-derived OPCs): 0.19 µM
Ki [1]: 0.084 µM

SMILES: O=S1(=O)CC2(CCN(C3CCN(c4ncc(C(F)(F)F)cc4F)CC3)C2)C1 [Compound 32, 6-(1-(3-fluoro-5-(trifluoromethyl)pyridin-2-yl)piperidin-4-yl)-2-thia-6-azaspiro[3.4]octane 2,2-dioxide]
EC50 (EpiSC-derived OPCs): 0.06 µM
Ki [1]: 0.011 µM

Continued, values first:

EC50 (EpiSC-derived OPCs): 0.071 µM
Ki [1]: 0.034 µM
SMILES: CC(C)n1nc(C(F)(F)F)cc1[C@H]1CC[C@H](N2CCC3(C2)CS(=O)(=O)C3)CC1 [Compound 8A, 6-((1r,4r)-4-(1-isopropyl-3-(trifluoromethyl)-1H-pyrazol-5-yl)cyclohexyl)-2-thia-6-azaspiro[3.4]octane 2,2-dioxide]

EC50 (EpiSC-derived OPCs): 0.24 µM
Ki [1]: 0.0329 µM
SMILES: CC(C)n1nc(C(F)(F)F)cc1[C@H]1CC[C@@H](N2CCC3(C2)CS(=O)(=O)C3)CC1 [Compound 8B, 6-((1s,4s)-4-(1-isopropyl-3-(trifluoromethyl)-1H-pyrazol-5-yl)cyclohexyl)-2-thia-6-azaspiro[3.4]octane 2,2-dioxide]

EC50 (EpiSC-derived OPCs): 0.037 µM
Ki [1]: 0.034 µM
SMILES: O=S1(=O)CC2(CCN([C@H]3CC[C@H](c4cc(C(F)(F)F)nn4C4CC4)CC3)C2)C1 [Compound 12A, 6-((1r,4r)-4-(1-Cyclopropyl-3-(trifluoromethyl)-1H-pyrazol-5-yl)cyclohexyl)-2-thia-6-azaspiro[3.4]octane 2,2-dioxide]

EC50 (EpiSC-derived OPCs): 0.24 µM
Ki [1]: 0.032 µM
SMILES: O=S1(=O)CC2(CCN([C@H]3CC[C@@H](c4cc(C(F)(F)F)nn4C4CC4)CC3)C2)C1 [Compound 12B, 6-((1s,4s)-4-(1-Cyclopropyl-3-(trifluoromethyl)-1H-pyrazol-5-yl)cyclohexyl)-2-thia-6-azaspiro[3.4]octane 2,2-dioxide]

EC50 (EpiSC-derived OPCs): 0.016 µM
Ki [1]: 0.059 µM
SMILES: O=S1(=O)CC2(CCN([C@H]3CC[C@H](c4ccc(C(F)(F)F)nc4)CC3)C2)C1 [Compound 14A, 6-((1r,4r)-4-(6-(Trifluoromethyl)pyridin-3-yl)cyclohexyl)-2-thia-6-azaspiro[3.4]octane 2,2-dioxide]

EC50 (EpiSC-derived OPCs): 0.24 µM
Ki [1]: 0.028 µM
SMILES: O=S1(=O)CC2(CCN([C@H]3CC[C@@H](c4ccc(C(F)(F)F)nc4)CC3)C2)C1 [Compound 14B, 6-((1s,4s)-4-(6-(Trifluoromethyl)pyridin-3-yl)cyclohexyl)-2-thia-6-azaspiro[3.4]octane 2,2-dioxide]

EC50 (EpiSC-derived OPCs): 0.037 µM
Ki [1]: 0.032 µM
SMILES: Cc1cc(C(F)(F)F)ncc1[C@H]1CC[C@@H](N2CCC3(C2)CS(=O)(=O)C3)CC1 [Compound 21A, 6-((1s,4s)-4-(4-Methyl-6-(trifluoromethyl)pyridin-3-yl)cyclohexyl)-2-thia-6-azaspiro[3.4]octane 2,2-dioxide]

EC50 (EpiSC-derived OPCs): 0.12 µM
Ki [1]: 0.046 µM
SMILES: Cc1cc(C(F)(F)F)ncc1[C@H]1CC[C@H](N2CCC3(C2)CS(=O)(=O)C3)CC1 [Compound 21B, 6-((1r,4r)-4-(4-Methyl-6-(trifluoromethyl)pyridin-3-yl)cyclohexyl)-2-thia-6-azaspiro[3.4]octane 2,2-dioxide]

EC50 (EpiSC-derived OPCs): 0.1 µM
Ki [1]: 0.021 µM
SMILES: O=S1(=O)CC2(CCN([C@H]3CC[C@@H](c4cc(C(F)(F)F)nn4C4CCC4)CC3)C2)C1 [Compound 23A, 6-((1s,4s)-4-(1-Cyclobutyl-3-(trifluoromethyl)-1H-pyrazol-5-yl)cyclohexyl)-2-thia-6-azaspiro[3.4]octane 2,2-dioxide]

EC50 (EpiSC-derived OPCs): 0.028 µM
Ki [1]: 0.012 µM
SMILES: O=S1(=O)CC2(CCN([C@H]3CC[C@H](c4cc(C(F)(F)F)nn4C4CCC4)CC3)C2)C1 [Compound 23B, 6-((1r,4r)-4-(1-Cyclobutyl-3-(trifluoromethyl)-1H-pyrazol-5-yl)cyclohexyl)-2-thia-6-azaspiro[3.4]octane 2,2-dioxide]

EC50 (EpiSC-derived OPCs): 0.1 µM
Ki [1]: 0.45 µM
SMILES: Cn1nc(C(F)(F)F)cc1[C@H]1CC[C@@H](N2CCC3(CC2)CS(=O)(=O)C3)CC1 [Compound 25A, 7-((1s,4s)-4-(1-Methyl-3-(trifluoromethyl)-1H-pyrazol-5-yl)cyclohexyl)-2-thia-7-azaspiro[3.5]nonane 2,2-dioxide]

EC50 (EpiSC-derived OPCs): 0.087 µM
Ki [1]: 0.27 µM
SMILES: Cn1nc(C(F)(F)F)cc1[C@H]1CC[C@H](N2CCC3(CC2)CS(=O)(=O)C3)CC1 [Compound 25B, 7-((1r,4r)-4-(1-methyl-3-(trifluoromethyl)-1H-pyrazol-5-yl)cyclohexyl)-2-thia-7-azaspiro[3.5]nonane 2,2-dioxide]
